The results in this text go back to patent US7312358B2, “Pharmaceutically active sulfanilide derivatives” (Laboratoires Serono SA, priority 2000, dated 2007).

Series [1] concerns the target T1, hOT-R (Homo sapiens, UniProt P30559).
T1 construct: expressed in transfected cells; host or cells: HEK (Human Embryonic Kidney) cells
T1 sequence (P30559 1-389): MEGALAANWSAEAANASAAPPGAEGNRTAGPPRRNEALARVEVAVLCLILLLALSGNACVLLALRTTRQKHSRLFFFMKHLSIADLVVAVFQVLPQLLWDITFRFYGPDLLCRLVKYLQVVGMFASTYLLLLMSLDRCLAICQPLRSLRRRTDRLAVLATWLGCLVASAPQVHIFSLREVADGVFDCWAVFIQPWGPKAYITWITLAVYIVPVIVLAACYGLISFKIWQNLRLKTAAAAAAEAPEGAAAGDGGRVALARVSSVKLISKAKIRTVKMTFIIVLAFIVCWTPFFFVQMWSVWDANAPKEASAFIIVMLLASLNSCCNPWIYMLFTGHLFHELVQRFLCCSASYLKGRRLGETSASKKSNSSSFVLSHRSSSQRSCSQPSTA
The experiment in a line: Inhibition of oxytocin mediated Ca2+-mobilization by FLIPR (HEK cells). It is filed as cell-based. Conditions: fluo-4, OT 40 nM. The source says:
c) Functional Assay No. 1: Inhibition of Oxytocitn Mediated Ca^2+-Mobilization by FLIPR (Fluorescent Imaging Plate Reader)
FLIPR is a machine for fluorescence imaging using a laser that is capable of illuminating a 96-well plate and a means of simultaneously reading each well thus enabling rapid measurements on a large number of samples.
This assay intends to show the inhibition of the OT/OT-R mediated calcium mobilisation—being necessary to cause uterine contractions—by using test compounds of formula (I).
Preparing the plates: FLIPR-plates were pre-coated with PLL (Poly-L-Lysine) 10 μg/ml+0.1% gelatine to attach the HEK (Human Embryonic Kidney) cells for 30 min up to 2 days at 37° C. The cells were plated out into 96-well plates (60000 cells/well).
Labelling with fluo-4: […] fluo-4 (fluorescent marker) were dissolved in 20 μl pluronic acid (20% in DMSO). The dissolved fluo-4 was then diluted in 10 ml DMEM (Dubecco's Minimal Essential Medium-F12 medium without FCS (Fetal Calf Serum). The medium was removed from the plates, followed by one wash with DNEM-F12 medium. Now, 100 μl of the DMEM-F12 medium containing fluo-4 were added and the cells incubated for 1.5-2 h (HEK-cells). The cells now contain the fluorescent marker.
Buffer: 145 mM NaCl, 5 mM KCl, 1 mM MgCl2, 10 mM Hepes, 10 mM Glucose, EGTA (Ethylene-bis oxyethylene nitrilo tetraacetic acid). Adjust to pH 7.4.
Performance of the assay: A minimum of 80 μl/well of antagonists (5×) in the above buffer (1×) were prepared (96-well plates). The antagonists were added to the well-plates at different concentrations (30 μM, 10 μM, 1 μM, 300 nM, 100 nM, 10 nM, 1 nM, 100 pM, 10 pM).
OT is added at a concentration of 40 nM.
The fluorescent marker being sensitive to the amount of Ca^2+ mobilized within the cell may be quantified by the FLIPR machine.
The activities of the sulfanilide derivatives according to formula I were assessed using the above described in vitro biological assay. The values refer to the capacity of the example compounds according to formula I to effectively antagonize oxytocin-induced intracellular Ca^2+-mobilization mediated by the oxytocin receptor.

Series [2] concerns the target T2, hOT receptor (Homo sapiens, UniProt P30559).
T2 construct: expressed in transfected cells; host or cells: HEK293EBNA cells (membranes)
T2 sequence (P30559 1-389): T1 sequence (P30559 1-389)
As to the kind of experiment: In vitro competition binding assay on hOT receptor with scintillating proximity assay. Conditions: membranes from HEK293EBNA cells expressing hOT receptor; radiolabel [125I]-OVTA; SPA; read-out: Binding Affinity Human OT-R Ki. As for the experimental part:
a) In Vitro Competition Binding Assay on hOT Receptor with Scintillating Proximity Assay (Pharmaceutical Manufacturing International, 1992, p. 49-53 by Cook, N. D. et al)
This assays allows to determine the affinity of the test compounds for the OT receptor. Membranes from HEK293EBNA cells expressing the hOT receptor were resuspended in buffer containing 50 mM Tris-HCl, pH 7.4, 5 mM MgCl2 and 0.1% BSA (w/v). The membranes (2-4 μg) were mixed with 0.1 mg wheat-germ aglutinin (WGA) SPA bead (type A) and 0.2 nM of the radiolabel [^125I]-OVTA (OVTA being […] and is an analogue of OT for competition binding experiments). Non-specific binding was determined in the presence of 1 μM Oxytocin. The total assay volume was 100 μl. The plates (Corning (D NBS plate) were incubated at room temperature for 30 min and counted on a Mibrobeta plate counter. The tests compounds were used in concentrations of 30 μM, 10 μM, 1 μM, 300 nM, 100 nM, 10 nM, 1 nM, 100 pM, 10 pM. The competition binding data were analysed using the iterative, nonlinear, curve-fitting program, “Prism”.
The binding affinities to the oxytocin receptor of the sulfanilide derivatives claimed in the formula I were assessed using the above described in vitro biological assay. The values refer to the binding affinity (IC50; μM) of the example compounds according to formula I to the Oxytocin receptor. From the values shown in Table 1 it can be derived that said test compounds according to formula I do show a significant binding to the oxytocin receptor.

In series [1], `COc1ccc(N(CC(=O)Nc2cccc(Cl)c2C)S(=O)(=O)c2ccccc2)cc1` [2-[Benzenesulfonyl-(4-methoxy-phenyl)-amino]-N-(3-chloro-2-methyl-phenyl)-acetamide] showed an IC50 of 45 nM. In other words, the double-digit nanomolar range.
`COc1ccc(N(CC(=O)Nc2cccc(OC)c2)S(=O)(=O)c2ccccc2)cc1` [2-[Benzenesulfonyl-(4-methoxy-phenyl)-amino]-N-(3-methoxy-phenyl)-acetamide] gave an IC50 in series [1] of 392 nM.
`COc1ccc(N(CC(=O)Nc2cccc3ccccc23)S(=O)(=O)c2ccccc2)cc1` [2-[Benzenesulfonyl-(4-methoxy-phenyl)-amino]-N-naphthalen-1-yl-acetamide] yielded an IC50 in series [1] of 363 nM.
The compound `COc1ccc(-c2ccc(S(=O)(=O)N(CC(=O)N/N=C3\C(=O)Nc4ccccc43)c3ccc(C)cc3)cc2)cc1` [Example 19, 4′-methoxy-N-(4-methylphenyl)-N-{2-oxo-2-[2-(2-oxo-1,2-dihydro-3H-indol-3-ylidene)hydrazino]ethyl}[1,1′-biphenyl]-4-sulfonamide] registered a melting point of 235 to 236 °C.
Still for that read-out and setting: to `CCOc1ccc(S(=O)(=O)N(CC(=O)N/N=C2/C(=O)N(C)c3ccccc32)c2ccc(C)cc2)cc1` [Example 20, 4-ethoxy-N-{2-[2-(1-methyl-2-oxo-1,2-dihydro-3H-indol-3-ylidene)hydrazino]-2-oxoethyl}-N-(4-methylphenyl)benzenesulfonamide] belongs 109 to 110 °C.
`CCOc1ccc(S(=O)(=O)N(CC(=O)N/N=C(/C)c2ccccc2O)c2ccc(C)cc2)cc1` [Example 22, 4-ethoxy-N-(2-{2-[1-(2-hydroxyphenyl)ethylidene]hydrazino}-2-oxoethyl)-N-(4-methylphenyl)benzenesulfonamide] gave a melting point of 199 to 200 °C.
On the same count and under the same terms, to `CC(C)(C)c1ccc(S(=O)(=O)N(CC(=O)N/N=C2/C(=O)Nc3ccccc32)c2ccc(Cl)cc2)cc1` [Example 26, 4-tert-Butyl-N-(4-chlorophenyl)-N-{2-oxo-2-[(2E)-2-(2-oxo-1,2-dihydro-3H-indol-3-ylidene)hydrazino]ethyl}benzenesulfonamide] belongs 194 to 195 °C.
Same read-out and setting: next, `COc1ccc(S(=O)(=O)N(CC(=O)N/N=C2/C(=O)Nc3ccccc32)c2ccc(Cl)cc2)cc1OC` [Example 27, N-(4-chlorophenyl)-3,4-dimethoxy-N-{2-oxo-2-[(2E)-2-(2-oxo-1,2-dihydro-3H-indol-3-ylidene)hydrazino]ethyl}benzenesulfonamide]: 132 to 133 °C; `Cc1ccc(N(CC(=O)N/N=C2/C(=O)Nc3ccccc32)S(=O)(=O)c2ccc(C(C)(C)C)cc2)cc1` [Example 28, 4-tert-Butyl-N-(4-methylphenyl)-N-{2-oxo-2-[(2E)-2-(2-oxo-1,2-dihydro-3H-indol-3-ylidene)hydrazino]ethyl}benzenesulfonamide]: 139 to 140 °C; `CCCc1ccc(S(=O)(=O)N(CC(=O)N/N=C2/C(=O)Nc3ccccc32)c2ccc(C)cc2)cc1` [Example 29, N-(4-methylphenyl)-N-{2-oxo-2-[(2E)-2-(2-oxo-12-dihydro-3H-indol-3-ylidene)hydrazino]ethyl}-4-propylbenzenesulfonamide]: 198 to 199 °C.
Still for that read-out and setting: to `CCCCOc1ccc(S(=O)(=O)N(CC(=O)N/N=C2/C(=O)Nc3ccccc32)c2ccc(C)cc2)cc1` [Example 30, 4-Butoxy-N-(4-methylphenyl)-N-{2-oxo-2-[(2E)-2-(2-oxo-1.2-dihydro-3H-indol-3-ylidene)hydrazino]ethyl}benzenesulfonamide] belongs 111 to 112 °C.
As for `CCOc1ccc(S(=O)(=O)N(CC(=O)N/N=C2\C(=O)Nc3ccccc32)c2ccc(Cl)cc2)cc1` [Example 40, N-(4-chlorophenyl)-4-ethoxy-N-{2-oxo-2-[(2Z)-2-(2-oxo-1,2-dihydro-3H-indol-3-ylidene)hydrazino]ethyl}benzenesulfonamide], the IC50 in series [1] turned out to be 102 nM. Besides, the Ki in series [2] came out at 0.4 nM.
In turn, `COCCOCCOc1ccc(S(=O)(=O)N(CC(=O)N/N=C2\C(=O)Nc3ccccc32)c2ccc(Cl)cc2)cc1` [Example 61, N-(4-chlorophenyl)-4-[2-(2-methoxyethoxy)ethoxy]-N-{2-oxo-2-[(2Z)-2-(2-oxo-1,2-dihydro-3H-indol-3-ylidene)hydrazino]ethyl}benzenesulfonamide] gave an IC50 in series [1] of 6.9 nM. The Ki in series [2] amounted to 2.9 nM.
For the compound `COCCOc1ccc(S(=O)(=O)N(CC(=O)N/N=C2\C(=O)Nc3ccccc32)c2ccc(Cl)cc2)cc1` [Example 62, N-(4-chlorophenyl)-4-(2-methoxyethoxy)-N-{2-oxo-2-[(2Z)-2-(2-oxo-1,2-dihydro-3H-indol-3-ylidene)hydrazino]ethyl}benzenesulfonamide], the IC50 in series [1] stood at 8 nM. This lies in the single-digit nanomolar range.
In series [1], `O=C(CN(c1ccc(Cl)cc1)S(=O)(=O)c1ccc(OCCCc2cccnc2)cc1)N/N=C1\C(=O)Nc2ccccc21` [Example 63, N-(4-chlorophenyl)-N-{2-oxo-2-[(2Z)-2-(2-oxo-1,2-dihydro-3H-indol-3-ylidene)hydrazino]ethyl}-4-[3-(3-pyridinyl)propoxy]benzenesulfonamide] had an IC50 of 17 nM. Further, the Ki in series [2] stood at 2.8 nM.
The corresponding values for `O=C(CN(c1ccc(Cl)cc1)S(=O)(=O)c1ccc(NCCN2CCOCC2)cc1)N/N=C1\C(=O)Nc2ccccc21` [Example 65, N-(4-chlorophenyl)-4-{[2-(4-morpholinyl)ethyl]amino}-N-{2-oxo-2-[(2Z)-2-(2-oxo-1,2-dihydro-3H-indol-3-ylidene)hydrazino]ethyl}benzenesulfonamide] are 49 nM and 6.9 nM.
On the same counts, the results for `Cc1ccc(N(CC(=O)N/N=C2\C(=O)Nc3ccccc32)S(=O)(=O)c2ccc(CCC(N)=O)cc2)cc1` [Example 66, 3-{4-[(4-methyl{2-oxo-2-[(2Z)-2-(2-oxo-1,2-dihydro-3H-indol-3-ylidene)hydrazino]ethyl}anilino)sulfonyl]phenyl}propanamide] are 19 nM and 3.4 nM.
The corresponding values for `COC(=O)c1cccc2c1NC(=O)/C2=N\NC(=O)CN(c1ccc(Cl)cc1)S(=O)(=O)c1ccc(OCCCN(C)C)cc1` [Example 70, Methyl (3Z)-3-({[4-chloro({4-[3-(dimethylamino)propoxy]phenyl}sulfonyl)anilino]acetyl}hydrazono)-2-oxo-2,3-dihydro-1H-indole-7-carboxylate] are 393 nM and 108 nM.
For `Cc1ccc(N(CC(=O)NCc2ccc(Cl)cc2Cl)S(=O)(=O)c2ccc(C)cc2)cc1` [N-(2,4-Dichloro-benzyl)-2-[(toluene-4-sulfonyl)-p-tolyl-amino]-acetamide], the IC50 in series [1] came to 595 nM. In other words, the sub-micromolar range.
